Measurements as given in patent US11970462B1, “Ethyl 3-[4,4-bis(4-chlorophenyl)-2,5-dioxoimidazolidin-1-yl]propanoate as an antimicrobial compound” (KING FAISAL UNIVERSITY, priority 2024, dated 2024).

Legend:
Assay type in all cases: cell-based
Conditions in all cases: after 10, 20, 40 and 60 minutes at all dilutions 1:100, 1:200, 1:400, 1:800
Staphylococcus aereus = test: Antimicrobial testing by agar dilution, St. Aereus
Method: (§1) The antimicrobial properties of the ethyl 3-[4,4-bis(4-chlorophenyl)-2,5-dioxoimidazolidin-1-yl]propanoate were studied by the method of agar dilution. Test solutions of each compound was prepared in concentration of 1% using dimethylformamide as a solvent then they are diluted in physiological solution to obtain the final experimental dilutions 1:100, 1:200, 1:400, 1:800. The effect of these substances are compared with furacillin in a controlable study. The testing microbes used were gram positive bacteria Staphylococcus aereus, gram negative bacteria Escherichia Coli, Pseudomonas aeruginosa and Candida albicans fungi were taken. The experiments used for this survey were meat-pentonlu agar (EPA) for cultivation of bacteria and Saburo environment for fungi. Each experiment used 1 ml of test solution on each plate 500 min. Add 2 drops of emulsified with microbes feel. All experimental samples were taken from the agar after 10, 20, 40, 60 minutes in the environment on the basis of Patrk planted. Bacteria were cultivated at a temperature of 37° C. for 1 day and the mushroom was kept in a thermostat for 2 hours at a temperature of 28° C. in the. Then results were checked.

Pseudomonas aeruginosa = test: Antimicrobial testing by agar dilution, Ps. aeruginosa
Method: as §1

Candida albicans = test: Antimicrobial testing by agar dilution, Candida albicans
Method: as §1

Escherichia Coli = test: Antimicrobial testing by agar dilution, E. Coli
Method: as §1

CCOC(=O)CCN1C(=O)NC(c2ccc(Cl)cc2)(c2ccc(Cl)cc2)C1=O [ethyl 3-[4,4-bis(4-chlorophenyl)-2,5-dioxoimidazolidin-1-yl]propanoate]
higher inhibition activity: inhibition activity (in words), Staphylococcus aereus (Staphylococcus aereus) | inhibition activity (in words), Pseudomonas aeruginosa (Pseudomonas aeruginosa) | inhibition activity (in words), Candida albicans (Candida albicans) | inhibition activity (in words), Escherichia Coli (Escherichia Coli)
